Data on two molecules can be found in US10619195B2, “Gene-expression profiling with reduced numbers of transcript measurements” (Massachusetts Institute of Technology, priority 2010, dated 2020).

In test [1] the test system is histone-deacetylase (HDAC) inhibitor query signature. The test can be described thus: Original Connectivity Map (Affymetrix microarrays) queried with an HDAC-inhibitor query signature. It is filed as cell-based, human. The following applies: published HDAC-inhibitor query signature (Glaser et al.), n=12, p-value<0.001, highest score. The source says:
The term “Connectivity Map” as used herein, refers to a public database of transcriptome-wide gene-expression profiles derived from cultured human cells treated with a plurality of perturbagens, and pattern-matching algorithms for the scoring and identification of significant similarities between those profiles and external gene-expression data, as described by Lamb et al., “The Connectivity Map: using gene-expression signatures to connect small molecules, genes and disease”. Science 313:1929 (2006). Build02 of the Connectivity Map contains 7,056 full-transcriptome gene-expression profiles generated with Affymetrix high-density oligonucleotide microarrays representing the biological effects of 1,309 small-molecule perturbagens, and is available at broadinstitute.org/cmap.
The term “enrichment score” as used herein, refers to a measure of the similarity of the biological effects of a perturbagen used to generate a query signature with those of a perturbagen represented in the Connectivity Map based upon the gene-expression profiles of multiple independent treatments with that perturbagen. […]

The test system is the same in test [2]. As to the kind of experiment: L1000 analog of Connectivity Map (1,000 landmark transcripts by LMF plus inference) queried with an HDAC-inhibitor query signature. The class given is cell-based, human. Particulars: L1000 dataset, MCF7 cells; published HDAC-inhibitor query signature (Glaser et al.); n=8, p-value<0.001; highest scoring perturbagen. The text has this:
This example described one method for the generation of transcriptome-wide gene-expression profiles using measurement of the expression levels of a sub-transcriptome number of cluster centroid landmark transcripts. The present method uses the LMF moderate multiplex gene-expression analysis platform described by Peck et al. (“A method for high-throughput gene expression signature analysis” Genome Biology 7:R61 2006), the Luminex FlexMAP 3D optically-addressed microspheres and flow-cytometric detection system, 1,000 cluster centroid landmark transcripts (and corresponding gene-specific sequences) validated for LMF from Example III (above), a corresponding dependency matrix from Example III (above), 50 empirically-determined invariant transcripts with expression levels spanning the range of those observed, and 1,050 barcode sequences developed. The FlexMAP 3D system allows simultaneous quantification of 500 distinct analytes in samples arrayed in the wells of a 384-well plate. […]
MCF7 cells were treated with small molecules and corresponding vehicles in 384-well plates. […] The captured amplicons were labeled with phycoerythrin and the resulting microsphere populations were analyzed using a FlexMAP 3D instrument in accordance with the manufacturer's instructions. […]

The subject of test [3] is canonical NF-κB signaling pathway (BIOCARTA_NFKB_PATHWAY). As to the kind of experiment: Gene-Set Enrichment Analysis of L1000 profiles from macrophages treated with LPS. It is filed as cell-based. Particulars: primary human macrophages, LPS versus vehicle control; L1000 inferred profiles; 512 gene sets tested; p<0.001. The protocol: The expression levels of 1,000 cluster centroid transcripts were measured in primary human macrophages following treatment with lipopolysaccharide (LPS) or vehicle control, and used to create gene-expression profiles composed of expression levels for 22,268 transcripts, according to the L1000 methods described in Example IV.
LPS is known to be a potent activator of the NF-KB transcription-factor complex (Qin et al., “LPS induces CD40 gene expression through the activation of NF-κB and STAT-1a in macrophages and microglia” Blood 106: 3114-3122 2005).

On to `O=C(CCCCCCC(=O)Nc1ccccc1)NO` [vorinostat], for which the figures for the enrichment score in test [1] and in test [2] were 0.973 and 0.921, respectively. Consider lipopolysaccharide [LPS], for which the “GSEA score of the BIOCARTA_NFKB_PATHWAY gene set (23 members)” value in test [3] is “highest score of all gene sets tested”.
